From ChEMBL document CHEMBL1149137, “Synthesis, screening, and molecular modeling of new potent and selective antagonists at the alpha 1d adrenergic receptor” (J Med Chem, 2004)

Columns and labels:
[1] = molecular target: T1, 5-hydroxytryptamine receptor 1A (Homo sapiens, UniProt P08908); assay: Binding affinity to human 5-hydroxytryptamine 1A receptor was measured using [3H]-8-hydroxy-2-(di-n-propylamine) tetraline [3H]8-OH-DPAT) as radioligand
T1 sequence (P08908 whole entry): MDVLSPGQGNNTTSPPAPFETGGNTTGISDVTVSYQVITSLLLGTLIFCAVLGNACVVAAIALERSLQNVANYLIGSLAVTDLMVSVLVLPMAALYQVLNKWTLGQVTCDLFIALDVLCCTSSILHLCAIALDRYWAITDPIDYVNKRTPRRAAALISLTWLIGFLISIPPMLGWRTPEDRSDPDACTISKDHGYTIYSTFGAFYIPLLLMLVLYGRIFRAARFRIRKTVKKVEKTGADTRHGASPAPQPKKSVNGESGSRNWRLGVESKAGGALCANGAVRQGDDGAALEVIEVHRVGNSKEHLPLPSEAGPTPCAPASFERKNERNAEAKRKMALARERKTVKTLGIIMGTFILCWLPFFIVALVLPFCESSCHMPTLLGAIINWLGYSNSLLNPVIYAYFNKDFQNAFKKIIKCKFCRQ

[2] = molecular target: Alpha-1D adrenergic receptor (Homo sapiens) (UniProt P25100); assay: Binding affinity to the adrenergic receptor alpha-1D of cloned human receptor
[3] = molecular target: Alpha-1A adrenergic receptor (Homo sapiens) (UniProt P35348); assay: In vitro binding affinity towards alpha-1A adrenergic receptor through displacement of [3H]prazosin in cloned human receptor.

| SMILES | Ki [1] [nM] | Ki [2] [nM] | Ki [3] [nM] |
| --- | --- | --- | --- |
| CN(CCN1C(=O)CC2(CCCC2)CC1=O)CC(=O)Nc1cc(Cl)ccc1Cl | > 10000 | > 1000 | – |
| CN(CCOc1ccccc1Cl)CCN1C(=O)CC2(CCCC2)CC1=O | 125 | 14.8 | – |
| CN(CCCN(C)c1cc(Cl)ccc1Cl)CCN1C(=O)CC2(CCCC2)CC1=O | > 1000 | 110 | – |
| O=C1CC2(CCCC2)CCN1CCN1CCN(c2ccccc2Cl)CC1 | 1.06 | 0.54 | 87.5 |
| CC1CN(c2ccccc2[N+](=O)[O-])CC(C)N1CCN1C(=O)CC2(CCCC2)CC1=O (configuration not stated) | 399 | > 1000 | – |
| O=C1CC2(CCCC2)CC(=O)N1CCN1CCC(c2ccccc2Cl)CC1 | 5.25 | 1.11 | 2.01 |
| CC(CN1CCN(c2cc(Cl)ccc2Cl)CC1)N1C(=O)CC2(CCCC2)CC1=O (configuration not stated) | – | 0.41 | 187 |
| CN(CCN1C(=O)CC2(CCCC2)CC1=O)CCN(C)c1cc(Cl)ccc1Cl | – | 16.4 | 786 |
| CN(CCCOc1cc(Cl)ccc1Cl)CCN1C(=O)CC2(CCCC2)CC1=O | 452 | 110 | – |
| CC1CN(c2ccccc2[N+](=O)[O-])CCN1CCN1C(=O)CC2(CCCC2)CC1=O (configuration not stated) | 86.2 | 597 | – |
| COc1ccccc1N1CCN(CCN2C=CC3(CCCC3)CC2=O)CC1 | 3.84 | 3.15 | 29.2 |
| O=C1CC2(C=CN1CCN1CCN(c3ccccc3Cl)CC1)CCCC2 | 9.38 | 0.84 | 53.9 |
| O=C1CC2(CCCC2)CC(=O)N1CCN1CCN(c2cc([N+](=O)[O-])ccc2Cl)CC1 | > 1000 | 18.2 | 44 |
| O=C1CC2(CCCC2)CC(=O)N1CCNCCOc1cc(Cl)ccc1Cl | > 1000 | 207 | – |
| CN(C(=O)CNCCN1C(=O)CC2(CCCC2)CC1=O)c1cc(Cl)ccc1Cl | > 1000 | > 1000 | – |
| O=C1C=CC(=O)N1CCN1CCN(c2cc(Cl)ccc2Cl)CC1 | > 1000 | 126 | – |
| CN(CCN1C(=O)CC2(CCCC2)CC1=O)CC(=O)N(C)c1cc(Cl)ccc1Cl | > 1000 | > 1000 | – |
| CC1(C)CC(=O)N(CCN2CCN(c3ccccc3Cl)CC2)C(=O)C1 | 65.8 | 23.4 | – |
| O=C1CC2(CCCC2)CC(=O)N1CCN1CCC(c2cc(Cl)ccc2Cl)CC1 | – | 1.5 | 119 |
| O=C1CC2(CCCC2)CC(=O)N1CCN1CCN(c2cc([N+](=O)[O-])ccc2F)CC1 | > 1000 | 46.3 | – |
| O=C1CC2(CCCC2)CC(=O)N1CCN1CCN(c2cc(C(F)(F)F)ccc2Cl)CC1 | > 1000 | 39.1 | – |
| CC(C)c1ccc(N2CCN(CCN3C(=O)CC4(CCCC4)CC3=O)CC2)cc1 | > 1000 | > 1000 | – |
| CN(CCNc1cc(Cl)ccc1Cl)CCN1C(=O)CC2(CCCC2)CC1=O | 717 | 674 | – |
| COc1ccccc1OCCNCCN1C(=O)CC2(CCCC2)CC1=O | 526 | > 1000 | – |
| O=C1CC2(CCCC2)C(=O)N1CCN1CCN(c2cc(Cl)ccc2Cl)CC1 | – | 3.11 | 68.3 |
| O=C1CCC(=O)N1CCN1CCN(c2cc(Cl)ccc2Cl)CC1 | – | 7.78 | – |
| O=C1CC2(CCCC2)CC(=O)N1CCNCCOc1ccccc1Cl | > 1000 | > 1000 | – |

Now from value to compound:

| Ki [1] [nM] | Ki [2] [nM] | Ki [3] [nM] | SMILES |
| --- | --- | --- | --- |
| 153 | 24.1 | – | O=C1CC2(CCCC2)CC(=O)N1CCN1CCN(c2ccc(F)cc2)CC1 |
| 1.09 | 2.02 | > 1000 | O=C1CC2(CCCC2)CC(=O)N1CCN1CCN(c2cccc(Cl)c2)CC1 |
| 12.1 | 3.89 | – | O=C1CC2(CCCC2)CC(=O)N1CCN1CCN(c2ccc(Cl)cc2Cl)CC1 |
| 1.2 | 1.34 | 10.9 | O=C1CC2(CCCC2)CC(=O)N1CCN1CCN(c2ccccc2C2CC2)CC1 |
| 3.37 | 12.7 | – | O=C1CC2(CCCC2)CC(=O)N1CCN1CCN(c2cccc(Cl)c2Cl)CC1 |
| 13.4 | 54.3 | > 1000 | COc1cccc(N2CCN(CCN3C(=O)CC4(CCCC4)CC3=O)CC2)c1 |
| 4.07 | 29 | – | CCOC(=O)c1ccccc1N1CCN(CCN2C(=O)CC3(CCCC3)CC2=O)CC1 |
| 135 | 0.37 | 190 | Cc1ccc(Cl)cc1N1CCN(CCN2C(=O)CC3(CCCC3)CC2=O)CC1 |
| 26.1 | 0.67 | 1.81 | O=C1CC2(CCCC2)CC(=O)N1CCCCN1CCN(c2cc(Cl)ccc2Cl)CC1 |
| – | 0.18 | 108 | O=C1CC2(CCCC2)CC(=O)N1CCN1CCN(c2cc(F)ccc2Cl)CC1 |
| 35.7 | 4.32 | 3350 | O=C1CC2(CCCC2)CC(=O)N1CCN1CCN(c2ccccc2)CC1 |
| 599 | 35.9 | – | O=C1CC2(CCCC2)CC(=O)N1CCN1CCN(c2ccc(Cl)cc2)CC1 |
| – | 10.1 | 119 | Cc1ccc(C)c(N2CCN(CCN3C(=O)CC4(CCCC4)CC3=O)CC2)c1 |
| 25.4 | 2.16 | 584 | Cc1ccccc1N1CCN(CCN2C(=O)CC3(CCCC3)CC2=O)CC1 |
| – | 7.56 | > 1000 | O=C1CC2(CCCC2)CC(=O)N1CCN1CCN(c2cc(C(F)(F)F)ccc2F)CC1 |
| 1.36 | 16.1 | – | O=C1CC2(CCCC2)CC(=O)N1CCN1CCN(c2ccccc2O)CC1 |
| 20 | 2.88 | 422 | O=C1CC2(CCCCC2)CC(=O)N1CCN1CCN(c2ccccc2Cl)CC1 |

| Ki [1] [nM] | Ki [2] [nM] | Ki [3] [nM] | SMILES |
| --- | --- | --- | --- |
| – | 2.65 | 120 | O=C1CC2(CCC2)CC(=O)N1CCN1CCN(c2cc(Cl)ccc2Cl)CC1 |
| 1.29 | 1.6 | 376 | O=C1CC2(CCCC2)CC(=O)N1CCN1CCN(c2ccccc2Br)CC1 |
| 2360 | 73.3 | – | Cc1ccc(N2CCN(CCN3C(=O)CC4(CCCC4)CC3=O)CC2)c(C)c1 |
| – | 3.72 | 114 | O=C1CC2(CCCC2)CC(=O)N1CCN1CCN(c2cc(Br)ccc2Br)CC1 |
| 19.8 | 5.38 | – | O=C1CC2(CCCC2)CC(=O)N1CCN1CCN(c2ccc(Cl)c(Cl)c2)CC1 |
| – | 15.3 | 479 | O=C1CC2(CCCC2)CC(=O)N1CCN1CCN(c2cc(I)ccc2Cl)CC1 |
| – | 2.38 | > 1000 | Cc1ccc(F)c(N2CCN(CCN3C(=O)CC4(CCCC4)CC3=O)CC2)c1 |
| 54.6 | 37.8 | – | COc1ccc(N2CCN(CCN3C(=O)CC4(CCCC4)CC3=O)CC2)cc1 |
| 26.3 | 5.25 | – | O=C1CC2(CCCC2)CC(=O)N1CCN1CCN(c2ccccc2C(F)(F)F)CC1 |
| – | – | > 1000 | O=C1CC2(CCCC2)CC(=O)N1CCN1CCN(c2ccccc2F)CC1 |
| – | 2.21 | 331 | O=C1CC2(CCCCC2)CC(=O)N1CCN1CCN(c2cc(Cl)ccc2Cl)CC1 |
| 11.3 | 15.3 | – | O=C1CC2(CCCC2)CC(=O)N1CCN1CCN(c2ccccc2[N+](=O)[O-])CC1 |
| 61 | 0.14 | – | O=C1CC2(CCCC2)CC(=O)N1CCN1CCN(c2cc(F)ccc2F)CC1 |
| – | 0.2 | 503 | N#Cc1ccc(Cl)cc1N1CCN(CCN2C(=O)CC3(CCCC3)CC2=O)CC1 |
| 8.22 | 153 | – | O=C1CC2(CCCC2)CC(=O)N1CCN1CCN(c2cccc(C(F)(F)F)c2)CC1 |
| 234 | 29.9 | – | O=C1CC2(CCCC2)CC(=O)N1CCN1CCN(c2c(Cl)cccc2Cl)CC1 |
